# Test results reported in patent US20110183954A1, “TRICYCLIC 2,4-DIAMINO-L,3,5-TRIAZINE DERIVATIVES USEFUL FOR THE TREATMENT OF CANCER AND MYELOPROLIFERATIVE DISORDERS” (ASTRAZENECA AB, priority 2008, published 2011).
# Target: human JAK2 (Homo sapiens, UniProt O60674)
# Test: Method 1 (JAK2): Amplified Luminescent Proximity Assay (Alphascreen)
# Format: biochemical
# Set-up: His6 (C); purchased Upstate Biotechnology; host or cells: baculovirus in Sf21 cells
# Details: 150 pM JAK2 enzyme, 5 mM ATP, 60 minutes, room temperature, read-out: IC50 (JAK inhibitory activity, Method 1 (JAK2))
# Description: JAK2 kinase activity may be determined by measuring the kinase's ability to phosphorylate synthetic tyrosine residues within a generic polypeptide substrate using an Amplified Luminescent Proximity Assay (Alphascreen) technology (PerkinElmer, 549 Albany Street, Boston, Mass.).
# To measure JAK2 kinase activity, a commercially available purified enzyme may be used. The enzyme may be a C-terminal His6-tagged, recombinant, human JAK2, amino acids 808-end, (Genbank Accession number NM 004972) expressed by baculovirus in Sf21 cells (Upstate Biotechnology MA). After incubation of the kinase with a biotinylated substrate and adenosine triphosphate (ATP) for 60 minutes at room temperature, the kinase reaction may be stopped by the addition of 30 mM ethylenediaminetetraacetic acid (EDTA). The reaction may be performed in 384 well microtitre plates and the reaction products may be detected with the addition of streptavidin coated Donor Beads and phosphotyrosine-specific antibodies coated Acceptor Beads using the EnVision Multilabel Plate Reader after an overnight incubation at room temperature.
# Sequence of human JAK2 (O60674 808-1132 limits assumed): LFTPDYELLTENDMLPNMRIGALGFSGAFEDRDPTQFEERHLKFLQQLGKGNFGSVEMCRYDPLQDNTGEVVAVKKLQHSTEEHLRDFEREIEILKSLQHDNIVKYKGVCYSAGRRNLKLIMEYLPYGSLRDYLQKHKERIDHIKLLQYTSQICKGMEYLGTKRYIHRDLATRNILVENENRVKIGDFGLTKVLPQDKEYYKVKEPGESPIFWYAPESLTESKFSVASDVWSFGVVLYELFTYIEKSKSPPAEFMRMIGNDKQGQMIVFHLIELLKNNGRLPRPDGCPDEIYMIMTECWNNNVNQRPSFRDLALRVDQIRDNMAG
row,IC50 [nM],SMILES
1,4,"C[C@H](Nc1nc(Nc2cn(C)cn2)nc(N2CCC(F)(F)CC2)n1)c1ncc(F)cc1F [Example 9, 6-(4,4-Difluoropiperidin-1-yl)-N-[(1S)-1-(3,5-difluoropyridin-2-yl)ethyl]-N-(1-methyl-1H-imidazol-4-yl)-1,3,5-triazine-2,4-diamine]"
2,11,"COC[C@H](Nc1nc(Nc2cn(C)cn2)nc(N2CCOC(C)C2)n1)c1ncc(F)cc1F (stereo partly drawn) [Example 2, N-[(1R)-1-(3,5-Difluoropyridin-2-yl)-2-methoxyethyl]-N′-(1-methyl-1H-imidazol-4-yl)-6-(2-methylmorpholin-4-yl)-1,3,5-triazine-2,4-diamine]"
3,8320,"C[C@H](Nc1nc(Nc2cn(CC(F)(F)F)cn2)nc(N2CCOCC2)n1)c1ncc(F)cn1 [Example 34, N-[(1S)-1-(5-fluoropyrimidin-2-yl)ethyl]-6-morpholin-4-yl-N′-[1-(2,2,2-trifluoroethyl)-1H-imidazol-4-yl]-1,3,5-triazine-2,4-diamine]"
4,219,"C[C@H](Nc1nc(Nc2cscn2)nc(N2CCOCC2)n1)c1ncc(F)cn1 [Example 26, N-[(1S)-1-(5-Fluoropyrimidin-2-yl)ethyl]-6-morpholin-4-yl-N′-1,3-thiazol-4-yl-1,3,5-triazine-2,4-diamine]"
5,2880,"CC(C)n1cnc(Nc2nc(N[C@@H](C)c3ncc(F)cn3)nc(N3CCOCC3)n2)c1 [Example 17, N-[(1S)-1-(5-Fluoropyrimidin-2-yl)ethyl]-N′-(1-isopropyl-1H-imidazol-4-yl)-6-morpholin-4-yl-1,3,5-triazine-2,4-diamine]"
6,234,"CCn1cnc(Nc2nc(N[C@@H](C)c3ncc(F)cc3F)nc(N3CCOCC3)n2)c1 [Example 31, N-[(1S)-1-(3,5-difluoropyridin-2-yl)ethyl]-N′-(1-ethyl-1H-imidazol-4-yl)-6-morpholin-4-yl-1,3,5-triazine-2,4-diamine]"
7,798,"C[C@H](Nc1nc(Nc2cn(C)cn2)nc(N2CCOCC2)n1)c1ccc(C#N)cc1 [Example 28, 4-[(1S)-1-({4-[(1-methyl-1H-imidazol-4-yl)amino]-6-morpholin-4-yl-1,3,5-triazin-2-yl}amino)ethyl]benzonitrile]"
8,283,"C[C@H](Nc1nc(Nc2cn(CCc3ccccc3)cn2)nc(N2CCOCC2)n1)c1ncc(F)cn1 [Example 6, N-[(1S)-1-(5-Fluoropyrimidin-2-yl)ethyl]-6-morpholin-4-yl-N′-[1-(2-phenylethyl)-1H-imidazol-4-yl]-1,3,5-triazine-2,4-diamine]"
9,3,"COC1CN(c2nc(Nc3cn(C)cn3)nc(N[C@@H](C)c3ncc(F)cc3F)n2)C1 [Example 19, N-[(1S)-1-(3,5-Difluoropyridin-2-yl)ethyl]-6-(3-methoxyazetidin-1-yl)-N′-(1-methyl-1H-imidazol-4-yl)-1,3,5-triazine-2,4-diamine]"
10,86,"C[C@H](Nc1nc(Nc2c[nH]cn2)nc(N2CCOCC2)n1)c1ncc(F)cn1 [Example 23, N-[(1S)-1-(5-Fluoropyrimidin-2-yl)ethyl]-N′-1H-imidazol-4-yl-6-morpholin-4-yl-1,3,5-triazine-2,4-diamine]"
11,18,"COC[C@H](Nc1nc(Nc2cn(C)cn2)nc(N2C[C@@H](C)O[C@@H](C)C2)n1)c1ncc(F)cc1F [Example 1, N-[(1R)-1-(3,5-Difluoropyridin-2-yl)-2-methoxyethyl]-6-[(2R,6S)-2,6-dimethylmorpholin-4-yl]-N′-(1-methyl-1H-imidazol-4-yl)-1,3,5-triazine-2,4-diamine]"
12,2870,"COCn1cnc(Nc2nc(N[C@@H](C)c3ncc(F)cn3)nc(N3CCOCC3)n2)c1 [Example 16, N-[(1S)-1-(5-Fluoropyrimidin-2-yl)ethyl]-N′-[1-(methoxymethyl)-1H-imidazol-4-yl]-6-morpholin-4-yl-1,3,5-triazine-2,4-diamine]"
13,393,"C[C@H](Nc1nc(Nc2cn(C3CC3)cn2)nc(N2CCOCC2)n1)c1ncc(F)cn1 [Example 32, N-(1-Cyclopropyl-1H-imidazol-4-yl)-N′-[(1S)-1-(5-fluoropyrimidin-2-yl)ethyl]-6-morpholin-4-yl-1,3,5-triazine-2,4-diamine]"
14,13,"C[C@H](Nc1nc(Nc2cn(C)cn2)nc(N2CC(F)C2)n1)c1ncc(F)cc1F [Example 18, N-[(1S)-1-(3,5-Difluoropyridin-2-yl)ethyl]-6-(3-fluoroazetidin-1-yl)-N′-(1-methyl-1H-imidazol-4-yl)-1,3,5-triazine-2,4-diamine]"
15,4,"C[C@H](Nc1nc(Nc2cn(C)cn2)nc(N2CCOC[C@H]2CO)n1)c1ncc(F)cc1F [Example 22, [(3R)-4-(4-{[(1S)-1-(3,5-difluoropyridin-2-yl)ethyl]amino}-6-[(1-methyl-1H-imidazol-4-yl)amino]-1,3,5-triazin-2-yl)morpholin-3-yl]methanol]"
16,< 8,"C[C@H](Nc1nc(Nc2cn(C)cn2)nc(N2CCOCC2)n1)c1ncc(F)cc1F (single isomer, unassigned) [Example 10(b)]"
17,873,"C[C@H](Nc1nc(Nc2cn(CC#N)cn2)nc(N2CCOCC2)n1)c1ncc(F)cn1 [Example 15, {4-[(4-{[(1S)-1-(5-Fluoropyrimidin-2-yl)ethyl]amino}-6-morpholin-4-yl-1,3,5-triazin-2-yl)amino]-1H-imidazol-1-yl}acetonitrile]"
18,4,"C[C@H](Nc1nc(Nc2cn(C)cn2)nc(N2CCC(F)CC2)n1)c1ncc(F)cc1F [Example 21, N-[(1S)-1-(3,5-Difluoropyridin-2-yl)ethyl]-6-(4-fluoropiperidin-1-yl)-N′-(1-methyl-1H-imidazol-4-yl)-1,3,5-triazine-2,4-diamine]"
19,4,"CC(Nc1nc(Nc2cn(C)cn2)nc(N2CCOCC2)n1)c1ncc(F)cc1F (racemic) [Example 10, N-[1-(3,5-Difluoropyridin-2-yl)ethyl]-N′-(1-methyl-1H-imidazol-4-yl)-6-morpholin-4-yl-1,3,5-triazine-2,4-diamine]"
20,9,"COC[C@H](Nc1nc(Nc2cn(C)cn2)nc(N2CCOC(C)(C)C2)n1)c1ncc(F)cc1F [Example 3, N-[(1R)-1-(3,5-Difluoropyridin-2-yl)-2-methoxyethyl]-6-(2,2-dimethylmorpholin-4-yl)-N-(1-methyl-1H-imidazol-4-yl)-1,3,5-triazine-2,4-diamine]"
21,7,"COC1CN(c2nc(Nc3cn(C)cn3)nc(N[C@@H](C)c3ncc(F)cn3)n2)C1 [Example 20, N-[(1S)-1-(5-Fluoropyrimidin-2-yl)ethyl]-6-(3-methoxyazetidin-1-yl)-N′-(1-methyl-1H-imidazol-4-yl)-1,3,5-triazine-2,4-diamine]"
22,9,"C[C@H](Nc1nc(Nc2cn(C)cn2)nc(N2CCOCC2)n1)c1ncc(F)cn1 [Example 5, N-[(1S)-1-(5-Fluoropyrimidin-2-yl)ethyl]-N′-(1-methyl-1H-imidazol-4-yl)-6-morpholin-4-yl-1,3,5-triazine-2,4-diamine]"
23,190,"C[C@@H](Nc1nc(Nc2cn(C)cn2)nc(N2CCOCC2)n1)c1ncc(F)cc1F (single isomer, unassigned) [Example 10(a)]"
24,3170,"C[C@H](Nc1nc(Nc2ncc(C#N)s2)nc(N2CCOCC2)n1)c1ncc(F)cn1 [Example 7, 2-[(4-{[(1S)-1-(5-Fluoropyrimidin-2-yl)ethyl]amino}-6-morpholin-4-yl-1,3,5-triazin-2-yl)amino]-1,3-thiazole-5-carbonitrile]"
25,7,"C[C@H](Nc1nc(Nc2cn(C)cn2)nc(N2CCC(F)(F)CC2)n1)c1ncc(F)cn1 [Example 14, 6-(4,4-Difluoropiperidin-1-yl)-N-[(1S)-1-(5-fluoropyrimidin-2-yl)ethyl]-N′-(1-methyl-1H-imidazol-4-yl)-1,3,5-triazine-2,4-diamine]"
26,998,"C[C@H](Nc1nc(Nc2cn(CCc3ccsc3)cn2)nc(N2CCOCC2)n1)c1ncc(F)cn1 [Example 33, N-[(1S)-1-(5-Fluoropyrimidin-2-yl)ethyl]-6-morpholin-4-yl-N′-{1-[2-(3 thienyl)ethyl]-1H-imidazol-4-yl}-1,3,5-triazine-2,4-diamine]"
27,4,"COC[C@H](Nc1nc(Nc2cn(C)cn2)nc(N2CCOCC2)n1)c1ncc(F)cc1F [Example 4, N-[(1R)-1-(3,5-Difluoropyridin-2-yl)-2-methoxyethyl]-N′-(1-methyl-1H-imidazol-4-yl)-6-morpholin-4-yl-1,3,5-triazine-2,4-diamine]"
28,4,"Cc1cnc(Nc2nc(N[C@@H](C)c3ncc(F)cn3)nc(N3CCOCC3)n2)s1 [Example 8, N-[(1S)-1-(5-Fluoropyrimidin-2-yl)ethyl]-N′-(5-methyl-1,3-thiazol-2-yl)-6-morpholin-4-yl-1,3,5-triazine-2,4-diamine]"
29,23,"CCn1cnc(Nc2nc(N[C@@H](C)c3ncc(F)cn3)nc(N3CCOCC3)n2)c1 [Example 35, N-(1-Ethyl-1H-imidazol-4-yl)-N′-[(1S)-1-(5-fluoropyrimidin-2-yl)ethyl]-6-morpholin-4-yl-1,3,5-triazine-2,4-diamine]"
